Source: patent publication US20140302009A1, “Medicinal Agent for Prevention or Treatment of Diseases Associated with Intraocular Neovascularization and/or Intraocular Vascular Hyperpermeability” (Sanwa Kagaku Kenkyusho Co., Ltd., priority 2011, published 2014)

Tests used:
[1] = system: choroidal neovascularization (CNV); test: Mouse model of choroidal neovascularization (CNV) induced by laser irradiation; CNV volume at 7 days; type: in vivo; conditions: 7 days after laser irradiation; for CNV suppression rate: based on non-treated group
Procedure: In the CNV model, macrophages migrate by the initiation of an inflammation by laser irradiation, and as a result thereof, VEGF is produced, neovascular vessels are generated, and increased vascular permeability is observed.
The both eyes of a male C57BL/6J mice having a body weight of about 20 g (6-week old) were irradiated with laser (irradiated by 4 to 6 spots per one eye) to experimentally induce CNV. As mentioned below, the drugs were administered by an anti-VEGF antibody alone and ranirestat alone, respectively, or by a combination of the two drugs. […] As the anti-VEGF antibody, a mouse anti-VEGF antibody purchased from R&D Systems was used. The number of examples was five per a group, and the following four groups were set.
(a) Untreated group (b) 3 mg/kg ranirestat-administered group: 3 mg/kg of ranirestat was forcibly and orally administered once a day (3 mg/kg/day) (c) Anti-VEGF antibody-administered group: ing of an anti-VEGF antibody was administered by intravitreal injection (d) Combination use group: ing of an anti-VEGF antibody was administered by intravitreal injection+ranirestat was administered (3 mg/kg was forcibly and orally administered once a day (3 mg/kg/day))
Ranirestat was administered from the days of the laser irradiation (20 to 30 minutes after the irradiation) to 7 days after the irradiation. The anti-VEGF antibody was administered by intravitreal injection immediately after the laser irradiation. After completion of the laser irradiation, the mice were bred by general breeding for 7 days, and thereafter the eye balls were excised and the volume of CNV appeared in the choroid was measured. The induction and evaluation of CNV were conducted by the following procedures.
Each mouse was anesthetized by administering 0.30 mL of tribromoethanol to the abdominal cavity of the mouse, and a mydriatics and a local anesthesia were placed a drop of the eyes. Thereafter the both eyes of the mouse were irradiated with laser (wavelength: 532 nm, output: 200 mW, irradiation time: 100 ms, spot size: 100 μm) by 4 to 6 spots per one eye using a laser photocoagulation device (Lumenis). CNV appeared by the laser irradiation, and thereafter the CNV volume increased.
At 7 days after the laser irradiation, each mouse was euthanized under tribromoethanol anesthesia, and the left and right eye balls of the mouse were excised. […] The volume of CNV was measured by importing an image in the vicinity of CNV by a confocal laser microscope (Zeiss LSM5 Pascal) and using image analysis software (NIH Image J). […]
Ranirestat was administered from the day of the laser irradiation (20 to 30 minutes after the irradiation) to seven days after the irradiation. […] The CNV volume was measured in a similar manner to Experiment 1.

[2] = injected into the vitreous body of a human; package insert of ranibizumab; cited from earlier work

Row | Compound | CNV suppression rate ([1]; Experiment 1, male C57BL/6J mice, ranirestat 3 mg/kg/day oral, anti-VEGF antibody by intravitreal injection) [%] | effect of suppressing the CNV volume as compared to the non-treated group ([1]; Experiment 1, ranirestat 3 mg/kg/day oral, anti-VEGF antibody intravitreal) | CNV suppression rate ([1]; Experiment 2, ranirestat 10 mg/kg/day oral, anti-VEGF antibody 1 ng by intravitreal injection) [%] | effect of suppressing the CNV volume as compared to the non-treated group ([1]; Experiment 2, ranirestat 10 mg/kg/day oral, anti-VEGF antibody 1 ng intravitreal) | elimination half-life [2] [h]
1 | O=C1C[C@@]2(C(=O)N1)C(=O)N(Cc1ccc(Br)cc1F)C(=O)c1cccn12 [ranirestat, (3R)-2′-(4-bromo-2-fluorobenzyl)spiro[pyrrolidine-3,4′(1′H)pyrrolo[1,2-a]pyrazine]-1′,2,3′,5(2′H)-tetrone] | 18.3 | an effect of suppressing the CNV volume was observed but there was no significant difference | 39.3 | a significant effect of suppressing the CNV volume was observed | –
2 | ranibizumab: typical anti-VEGF agent, used as intravitreal injection | – | – | – | – | 220
